Source: patent US20200024278A1, “COMPOSITION COMPRISING ANTIBIOTIC COMPOUND AND AN HETEROCYCLIC COMPOUND AND THEIR USE IN PREVENTING OR TREATING BACTERIAL INFECTIONS” (MUTABILIS, priority 2016, published 2020)
Like-named read-outs stand apart in the source and are kept apart here.

Legend:
Assay in all cases: MIC, broth microdilution (CLSI), substance alone or ATB combined with compound at 4 or 8 μg/mL
ECL P99 = type: cell-based, E. cloacae; conditions: ECL P99; for MIC: Enterobacter cloacae
In short: (§1)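 CLSI broth microdilution in cation-adjusted Mueller-Hinton broth, 5·10^5 CFU/mL log-phase inoculum, 16-20 h at 35 °C in ambient air. Fosfomycin assays supplemented with 25 μg/ml glucose-6-phosphate.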

PAE 105250 = type: cell-based, P. aeruginosa; conditions: PAE 105250
In short: as §1

PAE UFR48 = type: cell-based, P. aeruginosa; conditions: PAE UFR48
In short: as §1

PAE UFR90 = type: cell-based, P. aeruginosa; conditions: PAE UFR90
In short: as §1

SAU 29213 = type: cell-based, S. aureus; conditions: SAU 29213
In short: as §1

SPN 49619 = type: cell-based, S. pneumoniae; conditions: SPN 49619
In short: as §1

[1] = Pseudomonas aeruginosa, antibiotic alone, read-out: MIC ATB alone

CO/N=C(\C(=O)N[C@@H]1C(=O)N2C(C(=O)O)=C(COC(N)=O)CS[C@H]12)c1ccco1 [FUR, Cefuroxime, reference compound]
MIC ATB combined with Example 9 @4 μg/ml (ECL P99; with Example 9 at 4 μg/ml): <0.031 µg/mL
MIC ATB combined with Example 11 @8 μg/ml (ECL P99; with Example 11 at 8 μg/ml): <0.031 µg/mL
MIC ATB combined with Example 12 @8 μg/ml (ECL P99; with Example 12 at 8 μg/ml): <0.031 µg/mL
MIC ATB combined with Example 13 @8 μg/ml (ECL P99; with Example 13 at 8 μg/ml): 16 µg/mL
MIC ATB combined with Example 14 @8 μg/ml (ECL P99; with Example 14 at 8 μg/ml): <0.031 µg/mL
MIC ATB combined with Example 15 @4 μgml (ECL P99; with Example 15 at 4 μg/ml): <0.031 µg/mL
MIC ATB combined with Example 16 @4 μg/ml (ECL P99; with Example 16 at 4 μg/ml): <0.031 µg/mL
MIC (ECL P99; antibiotic alone, read-out: MIC ATB alone): > 512 µg/mL
MIC (ECL P99; substance alone, read-out: MIC): > 512 µg/mL
MIC ATB combined with Example 1 @8 μg/ml (PAE 105250; with Example 1 @8 μg/ml): <0.031 µg/mL
MIC ATB combined with Example 1 @8 μg/ml (PAE 105250; with Example 1 at 8 μg/ml): <0.031 µg/mL
MIC ATB combined with Example 7 @8 μgml (PAE 105250; with Example 7 at 8 μg/ml): >32 µg/mL
MIC ATB combined with Example 9 @4 μg/ml (PAE 105250; with Example 9 @4 μg/ml): >32 µg/mL
MIC ATB combined with Example 9 @4 μg/ml (PAE 105250; with Example 9 at 4 μg/ml): >32 µg/mL
MIC ATB combined with Example 11 @8 μg/ml (PAE 105250; with Example 11 at 8 μg/ml): >32 µg/mL
MIC ATB combined with Example 12 @8 μg/ml (PAE 105250; with Example 12 at 8 μg/ml): >32 µg/mL
MIC ATB combined with Example 13 @8 μg/ml (PAE 105250; with Example 13 at 8 μg/ml): >32 µg/mL
MIC ATB combined with Example 14 @8 μg/ml (PAE 105250; with Example 14 at 8 μg/ml): >32 µg/mL
MIC ATB combined with Example 15 @4 μgml (PAE 105250; with Example 15 at 4 μg/ml): >32 µg/mL
MIC ATB combined with Example 16 @4 μg/ml (PAE 105250; with Example 16 at 4 μg/ml): >32 µg/mL
MIC (PAE 105250; [1]): > 512 µg/mL
MIC ATB combined with Example 1 @8 μg/ml (PAE UFR48; with Example 1 @8 μg/ml): <0.031 µg/mL
MIC ATB combined with Example 1 @8 μg/ml (PAE UFR48; with Example 1 at 8 μg/ml): <0.031 µg/mL
MIC ATB combined with Example 7 @8 μgml (PAE UFR48; with Example 7 at 8 μg/ml): >32 µg/mL
MIC ATB combined with Example 9 @4 μg/ml (PAE UFR48; with Example 9 @4 μg/ml): >32 µg/mL
MIC ATB combined with Example 9 @4 μg/ml (PAE UFR48; with Example 9 at 4 μg/ml): >32 µg/mL
MIC ATB combined with Example 11 @8 μg/ml (PAE UFR48; with Example 11 at 8 μg/ml): >32 µg/mL
MIC ATB combined with Example 12 @8 μg/ml (PAE UFR48; with Example 12 at 8 μg/ml): >32 µg/mL
MIC ATB combined with Example 13 @8 μg/ml (PAE UFR48; with Example 13 at 8 μg/ml): >32 µg/mL
MIC ATB combined with Example 14 @8 μg/ml (PAE UFR48; with Example 14 at 8 μg/ml): >32 µg/mL
MIC ATB combined with Example 15 @4 μgml (PAE UFR48; with Example 15 at 4 μg/ml): >32 µg/mL
MIC ATB combined with Example 16 @4 μg/ml (PAE UFR48; with Example 16 at 4 μg/ml): >32 µg/mL
MIC (PAE UFR48; [1]): > 32 µg/mL
MIC ATB combined with Example 1 @8 μg/ml (PAE UFR90; with Example 1 @8 μg/ml): <0.031 µg/mL
MIC ATB combined with Example 1 @8 μg/ml (PAE UFR90; with Example 1 at 8 μg/ml): <0.031 µg/mL
MIC ATB combined with Example 7 @8 μgml (PAE UFR90; with Example 7 at 8 μg/ml): >32 µg/mL
MIC ATB combined with Example 9 @4 μg/ml (PAE UFR90; with Example 9 @4 μg/ml): >32 µg/mL
MIC ATB combined with Example 9 @4 μg/ml (PAE UFR90; with Example 9 at 4 μg/ml): >32 µg/mL
MIC ATB combined with Example 11 @8 μg/ml (PAE UFR90; with Example 11 at 8 μg/ml): >32 µg/mL
MIC ATB combined with Example 12 @8 μg/ml (PAE UFR90; with Example 12 at 8 μg/ml): >32 µg/mL
MIC ATB combined with Example 13 @8 μg/ml (PAE UFR90; with Example 13 at 8 μg/ml): >32 µg/mL
MIC ATB combined with Example 14 @8 μg/ml (PAE UFR90; with Example 14 at 8 μg/ml): >32 µg/mL
MIC ATB combined with Example 15 @4 μgml (PAE UFR90; with Example 15 at 4 μg/ml): >32 µg/mL
MIC ATB combined with Example 16 @4 μg/ml (PAE UFR90; with Example 16 at 4 μg/ml): >32 µg/mL
MIC (PAE UFR90; [1]): > 32 µg/mL
MIC ATB combined with Example 1 @8 μg/ml (SAU 29213; with Example 1 @8 μg/ml): 1 µg/mL
MIC ATB combined with Example 1 @8 μg/ml (SAU 29213; with Example 1 at 8 μg/ml): 1 µg/mL
MIC ATB combined with Example 7 @8 μgml (SAU 29213; with Example 7 at 8 μg/ml): 1 µg/mL
MIC ATB combined with Example 9 @4 μg/ml (SAU 29213; with Example 9 @4 μg/ml): <0.031 µg/mL
MIC ATB combined with Example 9 @4 μg/ml (SAU 29213; with Example 9 at 4 μg/ml): <0.031 µg/mL
MIC ATB combined with Example 11 @8 μg/ml (SAU 29213; with Example 11 at 8 μg/ml): <0.031 µg/mL
MIC ATB combined with Example 12 @8 μg/ml (SAU 29213; with Example 12 at 8 μg/ml): <0.031 µg/mL
MIC ATB combined with Example 13 @8 μg/ml (SAU 29213; with Example 13 at 8 μg/ml): 1 µg/mL
MIC ATB combined with Example 14 @8 μg/ml (SAU 29213; with Example 14 at 8 μg/ml): <0.031 µg/mL
MIC ATB combined with Example 15 @4 μgml (SAU 29213; with Example 15 at 4 μg/ml): <0.031 µg/mL
MIC ATB combined with Example 16 @4 μg/ml (SAU 29213; with Example 16 at 4 μg/ml): <0.031 µg/mL
MIC (SAU 29213; Staphylococcus aureus, antibiotic alone, read-out: MIC ATB alone): 2 µg/mL
MIC ATB combined with Example 1 @8 μg/ml (SPN 49619; with Example 1 @8 μg/ml): 0.25 µg/mL
MIC ATB combined with Example 1 @8 μg/ml (SPN 49619; with Example 1 at 8 μg/ml): 0.25 µg/mL
MIC ATB combined with Example 7 @8 μgml (SPN 49619; with Example 7 at 8 μg/ml): 0.25 µg/mL
MIC ATB combined with Example 9 @4 μg/ml (SPN 49619; with Example 9 @4 μg/ml): <=0.031 μg/mL
MIC ATB combined with Example 9 @4 μg/ml (SPN 49619; with Example 9 at 4 μg/ml): <=0.031 μg/mL
MIC ATB combined with Example 11 @8 μg/ml (SPN 49619; with Example 11 at 8 μg/ml): 0.063 µg/mL
MIC ATB combined with Example 12 @8 μg/ml (SPN 49619; with Example 12 at 8 μg/ml): <0.031 µg/mL
MIC ATB combined with Example 13 @8 μg/ml (SPN 49619; with Example 13 at 8 μg/ml): 0.25 µg/mL
MIC ATB combined with Example 14 @8 μg/ml (SPN 49619; with Example 14 at 8 μg/ml): <0.031 µg/mL
MIC ATB combined with Example 15 @4 μgml (SPN 49619; with Example 15 at 4 μg/ml): <0.031 µg/mL
MIC ATB combined with Example 16 @4 μg/ml (SPN 49619; with Example 16 at 4 μg/ml): <0.031 µg/mL
MIC (SPN 49619; Streptococcus pneumoniae, antibiotic alone, read-out: MIC ATB alone): 0.25 µg/mL
